Values joined by “and” are separate entries in the source; they are usually repeats but may differ in a detail not shown here. Identical values can stand only once.
Tests used:
[1] = test system: equine IL-31; assay: Equine challenge study using the IL-31 itch model after IL-31 mimotope vaccines; type: in vivo, Horse; conditions: for 1st Challenge Score (pruritus score): CRM197 conjugate 25 μg/dose, SP oil + CpG, IL-31 challenge Day 14 post-boost; for 1st Challenge Score (pruritus score) / Percent Change, 1st Challenge vs Historical Score / Percent Change, 2nd Challenge vs Historical Score / 2nd Challenge Score (pruritus score): individual horses; for 1st Challenge Average % Change in pruritus scores / Percent Change, 1st Challenge vs Historical Score: Day 14 post-boost; for 1st Challenge Average % Change in pruritus scores / 2nd Challenge Average % Change in pruritus scores: group mean; for 2nd Challenge Average % Change in pruritus scores / Percent Change, 2nd Challenge vs Historical Score: Day 105 post-boost; for 2nd Challenge Score (pruritus score): IL-31 challenge Day 105 post-boost; for reduction in itch (relative to historic scores): vaccinated horses, after 105 days of the final booster dose
From the text: Based on the high antibody titers elicited by horses vaccinated with CRM197 conjugated IL 31 mimotopes (FIG. 4), horses from the serology studies were utilized in a challenge study using the IL-31 itch model developed by the present inventors. Selected horses were vaccinated with an additional boost of the corresponding mimotope vaccines, after conclusion of the serology study, and were challenged with IL-31 at Day 14 after the final boost and at Day 105 after the final boost.
Various candidate IL-31 mimotope constructs were evaluated, including ZTS-7240 (comprising SEQ ID NO:4) mimotope (constrained) corresponding to the 1505 region and ZTS-241 (comprising SEQ ID NO:6) mimotope (linear) corresponding to the A helix of the IL-31 homology model (FIG. 2). Study design is outlined in Table 6 below:
There were no treatment groups T02 and T04 assigned in this study in order to continue to keep the group designations of respective horses from the first serology study. One horse each from treatment groups T02 and T04 from the first serology were used in treatment group T08 as negative controls (No booster dose given; challenged on Day 14 and Day 105 along with other treatment groups).

[2] = test system: IL-31 induced pruritus; assay: Oclacitinib maleate in equine model of IL-31 induced pruritus; type: in vivo, Horse; parameters: key to Post Treatment Score (pruritus): cumulative count of yes responses (1 per behavior per 1-min interval); conditions: for Post Treatment Score (pruritus) / % Change vs Historical Score: individual horses
Description: Horses were administered either carrier only or oclacitinib maleate tablets at a determined number of hours prior to IL-31 challenge administration. […] Blood samples for pharmacokinetic analysis were collected at the time of IL-31 administration and immediately following the post-challenge observation period. Due to limited number of observation stalls, horses were challenged in batches. Batch 1 will include T01 (n=2)+T02 (n=5). Batch 2 will include T01 (n=2)+T03 (n=5). Batch 3 will include T01 (n=2)+T04 (n=5) (Table 9)
Signs of pruritus in horses include: • Biting or scratching at self • Rubbing against objects • Feet stomping • Tail flicking • Head or body shaking • Rolling • Twitching of skin
A “yes” response was indicated by marking a “1” in the space provided for the specific behavior during the one minute interval. The cumulative number of yes responses per behavior were added to determine a cumulative pruritus score for each horse.

[3] = test system: Horse; assay: Equine IL-31 induced pruritus model via IL-31 challenge (dose finding); type: in vivo
Description: Three to eight horses were tested at one time. Dose level depended on the pruritic response from the previous dosing group. The final desired dose was repeated. The final study design was as follows (Table 1):
Observations of normal pruritic behavior (baseline pruritus scores) were made prior to the administration of IL-31 challenge. The horses were scored the same was as post challenge observations except no IL-31 challenge was administered and observation of normal pruritic behavior was made for 30 minutes.
Following baseline pruritus score, horses were administered the IL-31 challenge. IL-31 challenge was administered intravenously to each animal via a jugular vein. The horse ID and time of administration was recorded. Recording of pruritic activity began approximately 15 to 25 minutes after the last of the horses is administered the IL-31 challenge (Table 2 (A to F) below and FIG. 1).
Classical signs of pruritus in horses include: • Biting or scratching at self • Rubbing against objects • Feet stomping • Tail flicking • Head or body shaking • Rolling • Twitching of skin
A “yes” response was indicated by marking a “1” and a “no” response was indicated by marking a “0” during the one minute interval. The cumulative number of yes responses were added to determine a cumulative Pruritus Score for each horse.

[4] = IL-31 0.05 μg/kg IV, average (Table 2E)
[5] = IL-31 0.1 μg/kg IV, average (Table 2D)
[6] = IL-31 0.25 μg/kg IV, average (Table 2C)
[7] = IL-31 0.25 μg/kg IV, repeat in second set of horses, average (Table 2F)
[8] = IL-31 0.25 μg/kg IV, repeat in second set of horses, individual horses (Table 2F)
[9] = IL-31 0.5 μg/kg IV, average (Table 2B)

## Ac-CGSGGPIYQLQPKEIQAIIVELQNLSKK-NH2 (not fully specified; printed as Ac-CGSGGPIYQLQPKEIQAIIVELQNLSKK-NH2; numbers in words are those of the source; also: CRM197 conjugate) [ZTS-7241, tested as CRM197 conjugate with SP oil + CpG]
[1]; T03, T05, T06, T07: IM
  1st Challenge Score (pruritus score): 12 and 5 and 38
  1st Challenge Average % Change in pruritus scores: −82.18%
  Percent Change, 1st Challenge vs Historical Score: −86.44% and −94.87% and −65.23%
  2nd Challenge Average % Change in pruritus scores: −68.70%
  Percent Change, 2nd Challenge vs Historical Score: −87.57% and −48.72% and −69.81%
  2nd Challenge Score (pruritus score): 11 and 50 and 33
[1]
  reduction in itch (relative to historic scores): 68%

## Ac-CGSGKEKGVQKFDS-NH2 (not fully specified; printed as Ac-CGSGKEKGVQKFDS-NH2; numbers in words are those of the source; also: CRM197 conjugate) [ZTS-7242, tested as CRM197 conjugate with SP oil + CpG]
[1]; T03, T05, T06, T07: IM
  1st Challenge Score (pruritus score): 53 and 45 and 54
  1st Challenge Average % Change in pruritus scores: −20.58%
  Percent Change, 1st Challenge vs Historical Score: −23.96% and −17.43% and −20.35%
  2nd Challenge Average % Change in pruritus scores: 46.28%
  Percent Change, 2nd Challenge vs Historical Score: 22.94% and 69.62%
  2nd Challenge Score (pruritus score): 67 and 115

## Ac-CGSGNSSAILPYFKAISPSLNNDKSLYIIEQLDKLNF-NH2 (not fully specified; printed as Ac-CGSGNSSAILPYFKAISPSLNNDKSLYIIEQLDKLNF-NH2; numbers in words are those of the source; also: CRM197 conjugate) [ZTS-765, tested as CRM197 conjugate with SP oil + CpG]
[1]; T01, SC
  1st Challenge Score (pruritus score): 17 and 11
  1st Challenge Average % Change in pruritus scores: −82.12%
  Percent Change, 1st Challenge vs Historical Score: −74.81% and −89.42%
  2nd Challenge Average % Change in pruritus scores: −25.88%
  Percent Change, 2nd Challenge vs Historical Score: −39.26% and −12.50%
  2nd Challenge Score (pruritus score): 41 and 91
[1]; T03, T05, T06, T07: IM
  1st Challenge Score (pruritus score): 4 and 33 and 21
  1st Challenge Average % Change in pruritus scores: −77.62%
  Percent Change, 1st Challenge vs Historical Score: −94.54% and −66.33% and −72.00%
  2nd Challenge Average % Change in pruritus scores: −45.03%
  Percent Change, 2nd Challenge vs Historical Score: −23.60% and −40.82% and −70.67%
  2nd Challenge Score (pruritus score): 56 and 58 and 22

## Ac-C[Ahx]C(mT2b)TEVSMPTDNFERKRFILTC(mT2b)-NH2 [ZTS-7240]
[1]; T03, T05, T06, T07: IM
  1st Challenge Score (pruritus score): 6 and 21 and 18
  1st Challenge Average % Change in pruritus scores: −84.61%
  Percent Change, 1st Challenge vs Historical Score: −94.13% and −76.74% and −82.94%
  2nd Challenge Average % Change in pruritus scores: −84.27%
  Percent Change, 2nd Challenge vs Historical Score: −92.18% and −83.39% and −77.25%
  2nd Challenge Score (pruritus score): 8 and 15 and 24
[1]
  reduction in itch (relative to historic scores): 80%

## Oclacitinib maleate
[2]; T02: 0.25 mg/kg oral, IL-31 0.25 mcg/kg challenge 1.5 hr after dosing
  Post Treatment Score (pruritus): 21 and 94 and 91 and 86 and 46
[2]; T02: 0.25 mg/kg oral, challenge 1.5 hr after dosing
  % Change vs Historical Score: −68.89% and 6.21% and −5.70% and −9.47% and −31.85%
[2]; T02: 0.25 mg/kg, challenged 1.5 hours after treatment
  reduction in average pruritic score compared to the placebo group (T01): 30%
[2]; T03: 0.25 mg/kg oral, IL-31 0.25 mcg/kg challenge 21.5 hr after dosing
  Post Treatment Score (pruritus): 49 and 90 and 86 and 50 and 72
[2]; T03: 0.25 mg/kg oral, challenge 21.5 hr after dosing
  % Change vs Historical Score: −3.92% and 65.14% and 17.81% and −29.08% and −5.88%
[2]; T03: 0.25 mg/kg, challenged 21.5 hours after treatment
  reduction in average pruritic score compared to the placebo group (T01): 29%
[2]; T04: 0.25 mg/kg oral, IL-31 0.25 mcg/kg challenge 4.5 hr after dosing
  Post Treatment Score (pruritus): 49 and 87 and 46 and 53 and 99
[2]; T04: 0.25 mg/kg oral, challenge 4.5 hr after dosing
  % Change vs Historical Score: −55.05% and −22.32% and −54.23% and −45.92% and −6.16%
[2]; T04: 0.25 mg/kg, challenged 4.5 hours after treatment
  reduction in average pruritic score compared to the placebo group (T01): 31%

B1: IL-31: recombinant histidine tagged equine IL-31 polypeptide, SEQ ID NO: 10 less signal sequence, used as IV challenge material (protein)
chain: GPIYQLQPKEIQAIIVELQNLSKKLLDDYLNKEKGVQKFDSDLPSCFTSDSQAPGNINSSAILPYFKAISPSLNNDKSLYIIEQLDKLNFQNAPETEVSMPTDNFERKRFILTILRWFSNCLEHRAQHHHHHH
[3]; IL-31 0.05 μg/kg IV, 120 min observation, individual horses (Table 2E)
  Post Challenge Pruritus Score/120: 50 and 36 and 67 and 43 and 25 and 42 and 45 and 37
[3]; [4]
  Post Challenge Pruritus %, Average: 36%
  Post Challenge Pruritus Score/120, Average: 43.1
[3]; IL-31 0.05 μg/kg IV, individual horses (Table 2E)
  Post Challenge Pruritus %: 42% and 30% and 56% and 36% and 21% and 35% and 38% and 31%
[3]; IL-31 0.1 μg/kg IV, 120 min observation, individual horses (Table 2D)
  Post Challenge Pruritus Score/120: 62 and 72 and 115 and 74 and 71 and 86 and 96 and 103
[3]; [5]
  Post Challenge Pruritus %, Average: 71%
  Post Challenge Pruritus Score/120, Average: 84.9
[3]; IL-31 0.1 μg/kg IV, individual horses (Table 2D)
  Post Challenge Pruritus %: 52% and 60% and 96% and 62% and 59% and 72% and 80% and 86%
[3]; IL-31 0.25 μg/kg IV, 120 min observation, individual horses (Table 2C)
  Post Challenge Pruritus Score/120: 95 and 84 and 109 and 81 and 86 and 113 (2×)
[3]; [6]
  Post Challenge Pruritus %, Average: 81%
  Post Challenge Pruritus Score/120, Average: 97.3
[3]; IL-31 0.25 μg/kg IV, individual horses (Table 2C)
  Post Challenge Pruritus %: 79% and 70% and 91% and 68% and 72% and 94% (2×)
[3]; [7]
  Post Challenge Pruritus %, Average: 48%
  Post Challenge Pruritus Score/120, Average: 57.6
[3]; [8]
  Post Challenge Pruritus %: 47% and 17% and 9% and 73% and 57% and 72% and 43% and 68%
  Post Challenge Pruritus Score/120: 56 and 20 and 11 and 87 and 68 and 86 and 52 and 81
[3]; IL-31 0.5 μg/kg IV, 120 min observation, individual horses (Table 2B)
  Post Challenge Pruritus Score/120: 120 (2×) and 70 and 117 and 106 and 93 and 110
[3]; [9]
  Post Challenge Pruritus %, Average: 88%
  Post Challenge Pruritus Score/120, Average: 105.1
[3]; IL-31 0.5 μg/kg IV, individual horses (Table 2B)
  Post Challenge Pruritus %: 100% (2×) and 58% and 98% and 88% and 78% and 92%
[3]; IL-31 1.0 μg/kg IV, 120 min observation, average (Table 2A)
  Post Challenge Pruritus Score/120, Average: 114.7
[3]; IL-31 1.0 μg/kg IV, 120 min observation, individual horses (Table 2A)
  Post Challenge Pruritus Score/120: 120 (2×) and 104
[3]; IL-31 1.0 μg/kg IV, average (Table 2A)
  Post Challenge Pruritus %, Average: 96%
[3]; IL-31 1.0 μg/kg IV, first three horses, given diphenhydramine
  Animal health observations after post challenge observation period: uncomfortable level of pruritus and needed treatment
[3]; IL-31 1.0 μg/kg IV, individual horses (Table 2A)
  Post Challenge Pruritus %: 100% (2×) and 87%
[3]; IL-31 0.05-1.0 μg/kg IV, horses
  Animal health observations: adverse events of anaphylaxis: No adverse events of anaphylaxis were noted
